Reference: US8518935B2, “Amorphous besifloxacin solid” (Bausch & Lomb Incorporated, priority 2009, dated 2013)
Converted amounts (≈) assume the structure as drawn.

Experiment: Solubility in water at room temperature and pH of about 7
Type: physicochemical

## N[C@@H]1CCCCN(c2c(F)cc3c(=O)c(C(=O)O)cn(C4CC4)c3c2Cl)C1 [amorphous besifloxacin free base, (R)-(+)-7-(3-amino-2,3,4,5,6,7-hexahydro-1H-azepin-1-yl)-1-cyclopropyl-8-chloro-6-fluoro-1,4-dihydro-4-oxoquinoline-3-carboxylic acid]
pH 7, room temperature
  solubility: 0.516 mg/mL (≈ 1310 µM)

## N[C@@H]1CCCCN(c2c(F)cc3c(=O)c(C(=O)O)cn(C4CC4)c3c2Cl)C1 [besifloxacin free base starting material, (R)-(+)-7-(3-amino-2,3,4,5,6,7-hexahydro-1H-azepin-1-yl)-1-cyclopropyl-8-chloro-6-fluoro-1,4-dihydro-4-oxoquinoline-3-carboxylic acid]
Room temperature
  solubility in water: 0.0733 mg/mL (≈ 186 µM)
